{"source": "paper PMC5013292", "about": "“A Putative Bacterial ABC Transporter Circumvents the Essentiality of Signal Peptidase” (mBio, 2016)", "key": {"[1]": {"test_system": "S. aureus USA300 wild type", "experiment": "microbe, parasite or virus in culture", "type": "cell-based", "source_text": "Wild-type clinical S. aureus strains were obtained from the Network on Antibiotic Resistance in Staphylococcus aureus (NARSA/BEI) program. MRSA strain USA300 refers throughout this paper to strain NRS384 from NARSA/BEI. A global panel of 102 clinical S. aureus isolates was selected from the collection of International Health Management Associates, Inc. (IHMA; Schaumburg, IL), based on diversity of geographic locations, antibiotic resistance profiles, and sites of infection. Bacteria were cultured on cation-adjusted Mueller-Hinton agar (MHA) plates or in cation-adjusted Mueller-Hinton broth (MHB). Bacterial strains used in this study are listed in Table S5 in the supplemental material.\n(§1) MICs were determined according to the standard protocol from the Clinical and Laboratory Standards Institute ([23]). Briefly, S. aureus bacteria were harvested from regular MHA plates that had been cultured for ~20 h at 37°C. Serial dilutions of compound 103 were incubated with bacteria at approximately 10^6 CFU (CFU)/ml in MHB in round-bottom 96 well plates (Corning, Corning, NY) for 22 h at 37°C. MICs were determined by the lowest concentration of compound 103 showing absence of growth by visual inspection."}, "[2]": {"test_system": "S. aureus USA300 cro/cI (M1V) (GNE0117)", "experiment": "MIC, cro/cI(M1V) mutant", "type": "cell-based", "details": "for effect of cro/cI mutation on sensitivity to antibiotics: result in words, versus USA300 WT", "description": "as §1"}, "[3]": {"test_system": "USA300 WT strain (strain GNE0023)", "experiment": "MIC, parental USA300 WT strain GNE0023", "type": "cell-based, S. aureus", "description": "as §1\n(§2) To generate mutations in SAUSA300_0351, _0352, and _0353 genes by homologous recombination, we transformed USA300 Δmcr using targeting constructs created in the vector pIMAY ([24]). To generate mutations in SAUSA300_0351, _0352, and _0353 genes in a cro/cI mutant background, we selected colonies from USA300 Δmcr cultured on plates containing fourfold the MIC of compound 103. Sequencing of PCR products of the cro/cI gene from resistant colonies yielded a clone with a Q16stop codon mutation in cro/cI (strain GNE0173). We further mutated SAUSA300_0351, _0352, and _0353 in this USA300 Δmcr cro/cI (Q16stop) clone to study the contributions of these three genes to cro/cI-mediated resistance."}, "[4]": {"test_system": "S. aureus USA300 SAUSA300_0352(K44A) mutant (strain GNE0174)", "experiment": "MIC, K44A mutant GNE0174", "type": "cell-based", "description": "as §1, §2"}, "[5]": {"details": "S. aureus USA300 cro/cI (M1V) (GNE0117), Table S2"}}}
{"compound": "CCC[C@@H]1C[C@@H](C(=O)N[C@@H]([C@H]2O[C@H](SC)[C@H](O)[C@@H](O)[C@H]2O)[C@H](C)Cl)N(C)C1", "note": "[Clindamycin]", "values": [{"measurement": "MIC", "setting": "[1]; Staphylococcus aureus, USA300", "result": 0.25, "unit": "µg/mL"}, {"measurement": "effect of cro/cI mutation on sensitivity to antibiotics", "setting": "[2]", "result": "did not reduce sensitivity"}]}
{"compound": "CCCCCCCCCC(=O)N[C@@H](Cc1c[nH]c2ccccc12)C(=O)N[C@H](CC(N)=O)C(=O)N[C@@H](CC(=O)O)C(=O)N[C@@H]1C(=O)NCC(=O)N[C@@H](CCCN)C(=O)N[C@@H](CC(=O)O)C(=O)N[C@H](C)C(=O)N[C@@H](CC(=O)O)C(=O)NCC(=O)N[C@H](CO)C(=O)N[C@@H]([C@H](C)CC(=O)O)C(=O)N[C@@H](CC(=O)c2ccccc2N)C(=O)O[C@@H]1C", "note": "[Daptomycin]", "values": [{"measurement": "MIC", "setting": "[1]; S. aureus USA300 WT, Table S2", "result": 2, "unit": "µg/mL"}, {"measurement": "MIC", "setting": "[2]; [5]", "result": 2, "unit": "µg/mL"}, {"measurement": "effect of cro/cI mutation on sensitivity to antibiotics", "setting": "[2]", "result": "did not reduce sensitivity"}]}
{"compound": "CC[C@H]1OC(=O)[C@H](C)[C@@H](O[C@H]2C[C@@](C)(OC)[C@@H](O)[C@H](C)O2)[C@H](C)[C@@H](O[C@@H]2O[C@H](C)C[C@H](N(C)C)[C@H]2O)[C@](C)(O)C[C@@H](C)C(=O)[C@H](C)[C@@H](O)[C@]1(C)O", "note": "[Erythromycin]", "values": [{"measurement": "MIC", "setting": "[1]; Staphylococcus aureus, USA300", "result": "> 64", "unit": "µg/mL"}, {"measurement": "MIC", "setting": "[2]; Staphylococcus aureus, USA300", "result": "> 64", "unit": "µg/mL"}, {"measurement": "effect of cro/cI mutation on sensitivity to antibiotics", "setting": "[2]", "result": "did not reduce sensitivity"}]}
{"compound": "COc1c(N2CCNC(C)C2)c(F)cc2c(=O)c(C(=O)O)cn(C3CC3)c12", "note": "(stereo not drawn) [Gatifloxacin]", "values": [{"measurement": "MIC", "setting": "[1]; Staphylococcus aureus, USA300", "result": 0.5, "unit": "µg/mL"}, {"measurement": "effect of cro/cI mutation on sensitivity to antibiotics", "setting": "[2]", "result": "did not reduce sensitivity"}]}
{"compound": "CNC(C)C1CCC(N)C(OC2C(N)CC(N)C(OC3OCC(C)(O)C(NC)C3O)C2O)O1", "note": "(stereo not drawn) [Gentamycin]", "values": [{"measurement": "MIC", "setting": "[1]; Staphylococcus aureus, USA300", "result": 1, "unit": "µg/mL"}, {"measurement": "effect of cro/cI mutation on sensitivity to antibiotics", "setting": "[2]", "result": "did not reduce sensitivity"}]}
{"compound": "CC(=O)NC[C@H]1CN(c2ccc(N3CCOCC3)c(F)c2)C(=O)O1", "note": "[Linezolid]", "values": [{"measurement": "MIC", "setting": "[1]; Staphylococcus aureus, USA300", "result": 4, "unit": "µg/mL"}, {"measurement": "effect of cro/cI mutation on sensitivity to antibiotics", "setting": "[2]", "result": "did not reduce sensitivity"}]}
{"compound": "CO[C@@H]1[C@@H](OC(N)=O)[C@@H](O)[C@H](Oc2ccc3c(O)c(NC(=O)c4ccc(O)c(CC=C(C)C)c4)c(=O)oc3c2C)OC1(C)C", "note": "[Novobiocin]", "values": [{"measurement": "MIC", "setting": "[1]; Staphylococcus aureus, USA300", "result": 0.25, "unit": "µg/mL"}, {"measurement": "effect of cro/cI mutation on sensitivity to antibiotics", "setting": "[2]", "result": "did not reduce sensitivity"}]}
{"compound": "Cc1onc(-c2ccccc2)c1C(=O)N[C@@H]1C(=O)N2[C@@H]1SC(C)(C)[C@@H]2C(=O)O", "note": "[Oxacillin]", "values": [{"measurement": "MIC", "setting": "[1]; Staphylococcus aureus, USA300", "result": 64, "unit": "µg/mL"}, {"measurement": "effect of cro/cI mutation on sensitivity to antibiotics", "setting": "[2]", "result": "did not reduce sensitivity"}]}
{"compound": "CO[C@H]1/C=C/O[C@@]2(C)Oc3c(C)c(O)c4c(O)c(c(/C=N/N5CCN(C)CC5)c(O)c4c3C2=O)NC(=O)/C(C)=C\\C=C\\[C@H](C)[C@H](O)[C@@H](C)[C@@H](O)[C@@H](C)[C@H](OC(C)=O)[C@@H]1C", "note": "[Rifampicin]", "values": [{"measurement": "MIC", "setting": "[1]; Staphylococcus aureus, USA300", "result": 0.06, "unit": "µg/mL"}, {"measurement": "effect of cro/cI mutation on sensitivity to antibiotics", "setting": "[2]", "result": "did not reduce sensitivity"}]}
{"compound": "CN[C@H](CC(C)C)C(=O)N[C@H]1C(=O)N[C@@H](CC(N)=O)C(=O)N[C@H]2C(=O)N[C@H]3C(=O)N[C@H](C(=O)N[C@H](C(=O)O)c4cc(O)cc(O)c4-c4cc3ccc4O)[C@H](O)c3ccc(c(Cl)c3)Oc3cc2cc(c3O[C@@H]2O[C@H](CO)[C@@H](O)[C@H](O)[C@H]2O[C@H]2C[C@](C)(N)[C@H](O)[C@H](C)O2)Oc2ccc(cc2Cl)[C@H]1O", "note": "[Vancomycin]", "values": [{"measurement": "MIC", "setting": "[1]; S. aureus USA300 WT, Table S2", "result": 2, "unit": "µg/mL"}, {"measurement": "MIC", "setting": "[2]; [5]", "result": 1, "unit": "µg/mL"}, {"measurement": "effect of cro/cI mutation on sensitivity to antibiotics", "setting": "[2]", "result": "did not reduce sensitivity"}]}
{"compound": "nisin", "values": [{"measurement": "MIC", "setting": "[3]", "result": 200, "unit": "µg/mL"}, {"measurement": "MIC", "setting": "[4]", "result": 200, "unit": "µg/mL"}]}
{"compound": "protamine", "values": [{"measurement": "MIC", "setting": "[3]", "result": 8, "unit": "µg/mL"}, {"measurement": "MIC", "setting": "[4]", "result": 8, "unit": "µg/mL"}]}
